Test results published in patent publication US12033725B2, “Antimicrobial peptides and related methods” (GEORGE MASON UNIVERSITY, priority 2021, dated 2024).
≈ marks a conversion by molar mass, not a printed value. Entries after “also recorded” stand apart in the source; their conditions may differ. Read-outs that look alike come from different tables or passages of the source. Bridge positions count the residues as written; N and C are the ends. Ends that are not written are not given here. Peptide text beside a SMILES is read from it.

Key:
E. coli O157:H7 51659 [1] = experiment: EC50 antimicrobial activity assay (low salt, 10 mM sodium phosphate); format: cell-based, Escherichia coli; details: MDR E. coli, 3 h
Procedure: (§1) Staphylococcus aureus ATCC 33592 (MDR) and BAA-1718, E. coli ATCC 51659 (MDR) and 4,157 were purchased from the American Type Culture Collection (Manassas, VA, United States). All strains are reference strains. Bacteria were grown in Tryptic Soy Broth (BD 211825), except E. coli 4157 which was grown in Nutrient Broth (Difco 234000), overnight in a shaking incubator (37 C). Bacteria were aliquoted, mixed with glycerol (final concentration of 20% of glycerol) and frozen at −80 C and enumerated via serial dilution and plating prior to experimentation.
The antimicrobial activity of the PHNX peptides and LL-37 (AnaSpec 61302) against bacteria was determined as previously described (Barksdale et al., 2016, 2017). […] Serial dilutions were then prepared in 1× Dulbecco's PBS and 8 ul of each dilution was spotted in triplicate on Tryptic Soy Agar plates, which were incubated (37 C, 24 h) and CFUs were counted (Barksdale et al., 2016, 2017). Bacterial survival at each peptide concentration was calculated based on the ratio of the number of colonies on each experimental plate and the average number of colonies observed for assay cultures lacking peptide. […] EC50 values were determined by fitting the data from the antimicrobial assays to a standard sigmoidal dose-response curve. […]

S. aureus MRSA 33592 [2] = format: cell-based, Staphylococcus aureus; details: low salt, 10 mM sodium phosphate, 3 h
Procedure: as §1
The antimicrobial activity of the PHNX peptides and LL-37 (AnaSpec 61302) against bacteria was determined as previously described (Barksdale et al., 2016, 2017). Briefly, 1×10^5 CFU per well of bacteria were incubated with different peptide concentrations (n=3) in a 50-ul solution of 10 mM sodium phosphate buffer (3 h, 37 C). Serial dilutions were then prepared in 1× Dulbecco's PBS and 8 ul of each dilution was spotted in triplicate on Tryptic Soy Agar plates, which were incubated (37 C, 24 h) and CFUs were counted (Barksdale et al., 2016, 2017). Bacterial survival at each peptide concentration was calculated based on the ratio of the number of colonies on each experimental plate and the average number of colonies observed for assay cultures lacking peptide. The peptide concentration required to kill 50% of the viable bacteria in the assay cultures (EC5O) was determined by plotting percent survival as a function of the log of peptide concentration (log μg/ml) and fitting the data using GraphPad Prism 6 (GraphPad Software Inc., San Diego, CA, United States). For the purpose of graphing, samples that had no peptide (0 μg/ml) are plotted at 1×10^−7 μg/ml peptide. EC50 values were determined by fitting the data from the antimicrobial assays to a standard sigmoidal dose-response curve. […] Wells containing only 10 mM sodium phosphate buffer were used as sterility control.

human red blood cells = tested on: human red blood cells
Procedure: To measure the hemolytic activity of peptides, 2% human red blood cells were added to various dilutions of peptide reconstituted in PBS in a sterile U-bottom polystyrene 96 well plate (Dean et al., 2011). The commercially obtained, deidentified human RBCs (BIOIVT Westbury, NY) were prepared as follows: 1 mL of K2EDTA whole blood from a healthy donor was centrifuged at 1,600 g for 10 min and plasma was discarded. The remaining RBCs were washed 4 times with 1 ml 1×PBS (HyClone), then the pallet after the last wash was resuspended with 750 ul of 1×PBS. 2% RBCs suspension was prepared by adding 200 ul of washed cells to 9.8 mL of 1×PBS. […] of 2% RBCs were added to each well (n=3) containing diluted peptides resulting in final peptide concentration of 100, 10, and 1 μg/ml. 2% RBCs with 1×PBS alone served as the negative control (No peptide), and 2% RBC in deionized water as the positive control, leading to full lysis. The plate was incubated for 1 h at 37 C and then centrifuged at 1,000 rpm for 2 min. The supernatant was transferred to a fresh regular 96 well plate and read at OD540 as previously reported (Dean et al., 2011). Student's t-test was used to determine whether points were statistically significant.

E. coli 4157 [3] = experiment: Antibacterial screening at 100 μg/ml; format: cell-based, Escherichia coli; details: peptide 100 μg/ml
Procedure: as §1
(§2) The antibacterial screening test of the peptides (n=3) was first determined at a final peptide concentration of 100 μg/ml and a final bacterial concentration of 5×10^5 CFU/mL in Difco Mueller Hinton Broth (BD 275730) in a 96 well plate. The plate was incubated for 16-20 h at 37 C and then read on a spectrophotometer at OD600 nm. […] Wells containing medium only were used as sterility control, in the wells around the edge of the plates. LL-37 was used as a control in the first run of experiments against the MDR bacterial strains (Turner et al., 1998). […] The sequence of BF-CATH was derived from DBAASP database listed as cathelicidin-BF-34 with the following sequence: […]

E. coli O157:H7 51659 [4] = experiment: Antibacterial screening at 100 μg/ml; format: cell-based, Escherichia coli; details: for bactericidal activity: 100 μg/ml, MDR E. coli
Procedure: as §1, §2

E. coli 4157 [5] = format: cell-based, Escherichia coli
Procedure: as §1
(§3) The full range MIC activity testing of the peptides was then determined as previously reported using the Mueller Hinton Broth (BD 275730) in a 96 well plate following the CLSI protocol (Wiegand et al., 2008). Enumerated bacteria were diluted in MHB and 50 ul of 1×10^6 CFU/mL (5×10^4 CFU) was added to each well with 50 ul of a decreasing series of twofold peptide concentration. The plate was incubated for 16-20 h at 37 C and then read on a spectrophotometer at OD600 nm.

S. aureus 33592 = format: cell-based, Staphylococcus aureus; details: MDR S. aureus (MRSA) 33592, Mueller Hinton Broth
Procedure: as §1, §3

S. aureus BAA-1718 = format: cell-based, Staphylococcus aureus; details: antibiotic susceptible S. aureus BAA-1718, Mueller Hinton Broth
Procedure: as §1, §3

S. aureus MRSA 33592 [6] = experiment: Antibacterial screening at 100 μg/ml; format: cell-based, Staphylococcus aureus; details: MDR S. aureus
Procedure: as §1, §2

MDR E. coli 51659 = format: cell-based, Escherichia coli; details: MDR E. coli O157:H7 51659, Mueller Hinton Broth (high salt)
Procedure: as §1, §3

E. coli ATCC 25922 = E. coli ATCC 25922 (Wang et al., 2008); cited from earlier work
[7] = peptide 1 μg/ml, 2% human RBCs (EDTA), 1 h

For FGKLLKLGKGLKG [PHNX-3], the EC50 (E. coli O157:H7 51659 [1]) was “no activity” and the EC50 (S. aureus MRSA 33592 [2]) was “no activity”.

With `CC[C@H](C)[C@H](NC(=O)[C@H](CCCCN)NC(=O)[C@H](CC(=O)O)NC(=O)[C@H](CC(C)C)NC(=O)[C@H](CC(C)C)NC(=O)[C@H](CCC(N)=O)NC(=O)CNC(=O)[C@H](C)NC(=O)[C@H](CC(C)C)NC(=O)[C@H](CC(N)=O)NC(=O)[C@H](CCCCN)NC(=O)[C@H](C)NC(=O)[C@H](C)NC(=O)[C@H](CC(N)=O)NC(=O)[C@H](CCCCN)NC(=O)[C@@H](NC(=O)[C@@H](NC(=O)[C@H](CC(=O)O)NC(=O)[C@H](CCSC)NC(=O)[C@H](CC(C)C)NC(=O)CN)[C@@H](C)O)C(C)C)C(=O)N[C@@H](CCCCN)C(=O)N[C@H]1CSSC[C@@H](C(=O)O)NC(=O)CNC(=O)[C@H]([C@@H](C)O)NC(=O)[C@H]([C@@H](C)CC)NC(=O)[C@H](CCCCN)NC1=O` [PHNX-8] (H-GLMDTVKNAAKNLAGQLLDKIKCKITGC-OH; disulfide 23-28 (inferred); N-terminus and C-terminus assumed) the hemolysis (human red blood cells) was “higher hemolytic activity”, the “growth inhibition in the screen (in words)” value (E. coli 4157 [3]; E. coli 4157) was “showed activity” and the bacterial survival (E. coli 4157 [3]; antibiotic susceptible E. coli 4157) was ~0%. The “growth inhibition in the screen (in words)” value (E. coli O157:H7 51659 [4]; peptide 100 μg/ml, MDR E. coli 51659) was “showed activity”, the bacterial survival (E. coli O157:H7 51659 [4]; peptide 100 μg/ml, antibiotic resistant E. coli O157:H7 51659) was ~0% and the MIC (E. coli 4157 [5]; 4157) was 32 µg/mL (≈ 10.9 µM). For the same compound, the MIC (S. aureus 33592) was “without any activity; also recorded: no activity” and the MIC (S. aureus BAA-1718) was “without any activity; also recorded: no activity”.

In the case of `CC[C@H](C)[C@H](NC(=O)[C@H](CCCCN)NC(=O)[C@H](CCC(=O)O)NC(=O)[C@H](CCCCN)NC(=O)[C@H](CO)NC(=O)[C@H](CCCCN)NC(=O)[C@H](CCCNC(=N)N)NC(=O)[C@H](Cc1ccccc1)NC(=O)[C@H](Cc1ccccc1)NC(=O)[C@H](CC(=O)O)NC(=O)CNC(=O)[C@H](CC(C)C)NC(=O)[C@@H](N)CC(C)C)C(=O)NCC(=O)N[C@@H](CCCCN)C(=O)N[C@@H](CCC(=O)O)C(=O)N[C@@H](Cc1ccccc1)C(=O)N[C@@H](CCCCN)C(=O)N[C@@H](CCCNC(=N)N)C(=O)N[C@H](C(=O)N[C@H](C(=O)N[C@@H](CCC(N)=O)C(=O)N[C@@H](CCCNC(=N)N)C(=O)N[C@H](C(=O)N[C@@H](CCCCN)C(=O)N[C@@H](CC(=O)O)C(=O)N[C@@H](Cc1ccccc1)C(=O)N[C@@H](CC(C)C)C(=O)N[C@@H](CCCNC(=N)N)C(=O)N[C@@H](CC(N)=O)C(=O)N[C@@H](CC(C)C)C(=O)N[C@H](C(=O)N1CCC[C@H]1C(=O)N[C@@H](CCCNC(=N)N)C(=O)N[C@H](C(=O)N[C@@H](CCC(=O)O)C(=O)N[C@@H](CO)C(=O)O)[C@@H](C)O)C(C)C)[C@@H](C)CC)C(C)C)[C@@H](C)CC` [LL-37, reference compound], the hemolysis (human red blood cells; [7]) is reported as “negligible hemolysis” and the hemolysis (human red blood cells; peptide 100 μg/ml, 2% human RBCs (EDTA), 1 h) is reported as “approximately 40%”.

With FLLKLGLGKKKLL [PHNX-4] the hemolysis (human red blood cells) was “higher hemolytic activity”.

For “KRFKKFFRKLKKSVKKRAKEFFKKPRVIGVSIPF [BF-CATH, reference compound]”, the bactericidal activity (S. aureus MRSA 33592 [6]) was 100%, the bactericidal activity (E. coli O157:H7 51659 [4]) was 100% and the MIC (E. coli 4157 [5]; antibiotic susceptible E. coli 4157, Mueller Hinton Broth) was “strong antimicrobial activity”. For the same compound, the MIC (MDR E. coli 51659) was “strong antimicrobial activity”, the MIC (S. aureus 33592) was “not very effective” and the MIC (S. aureus BAA-1718) was “not very effective”. For the same compound, the “previously reported antimicrobial activity level” value (E. coli ATCC 25922) was 2.3 µg/mL.

For “VRLIVAVRIWRR-NH2 (C-terminus assumed) [IDR-1018, reference compound]”, the bactericidal activity (S. aureus MRSA 33592 [6]) was 100%, the hemolysis (human red blood cells; [7]) was “negligible hemolysis” and the bactericidal activity (E. coli O157:H7 51659 [4]) was 100%.

Compound FIGAIASYLKKFR [PHNX-6] has an EC50 (S. aureus MRSA 33592 [2]) of 7.95 µg/mL.

In the case of GVVDIIKGAGKKFAKGLAGKIANKK [PHNX-7], the hemolysis (human red blood cells) is reported as “higher hemolytic activity”, the EC50 (S. aureus MRSA 33592 [2]) is reported as 2.09 µg/mL and the MIC (MDR E. coli 51659) is reported as > 64 µg/mL.

For FLIKILKGGKGGK [PHNX-5], the hemolysis (human red blood cells) was “higher hemolytic activity” and the EC50 (S. aureus MRSA 33592 [2]) was > 10 µg/mL.

For FGKLLKLGKGLGG [PHNX-2], the EC50 (E. coli O157:H7 51659 [1]) was “no activity” and the EC50 (S. aureus MRSA 33592 [2]) was “no activity”.
